Where a name gives a salt, the structure may show the parent alone.
Target: T1, human recombinant DPP-IV (Homo sapiens, UniProt P27487)
T1 construct: purchased R&D Systems, USA (or produced in-house)
Assay: Inhibition of human recombinant DPP-IV (Gly-Pro-AMC hydrolysis, fluorometric)
Assay type: biochemical
Details: for IC50: human recombinant DPP-IV, 50 μM Gly-Pro-AMC, 30 min at 30° C.
Method: Inhibition of Human Recombinant DPP-IV
The proteolytic activity of human recombinant DPP-IV was determined by following the hydrolysis of Gly-Pro-7-amino-4-methylcoumarin (Gly-Pro-AMC) and the fluorometric quantitation of the liberated AMC. Assays were routinely carried out in 96-well flat-bottom black microwell plates. The reaction mixture (100 μl) contained 10 ng of human recombinant DPP-IV enzyme (produced in-house or procured from R&D Systems, USA) in the assay buffer (25 mM Tris-HCl, pH 7.4, 140 mM NaCl, 10 mM KCl and 0.1 mg/ml BSA) and 50 μM Gly-Pro-AMC. After incubation of assay plates at 30° C. for 30 min, the hydrolysis of Gly-Pro-AMC was monitored in a fluorescence microplate reader (Molecular Devices SpectraMax M5), with excitation and emission wavelengths set at 360 nm and 460 nm, respectively.
The inhibition of DPP-IV activity by test compounds was routinely performed by preincubating the enzyme with test compound (10 and 100 nM for primary screening and 8 concentrations from 0.1 to 1000 nM for the dose-response study) or vehicle (0.01% DMSO) for 15 min at 30° C., in a total volume of 90 μl. Test compounds were dissolved in DMSO at a concentration of 10 mM and serially diluted further in assay buffer. The enzyme reaction was initiated by the addition of Gly-Pro-AMC, followed by incubation of assay plates for 30 min at 30° C. and the liberated AMC was measured as described above. A known inhibitor of DPP-IV (positive control) was always included in the assay. Test compounds at various concentrations were always evaluated in duplicate, along with substrate blanks, vehicle controls and positive controls.
The results are expressed as percent inhibition of the enzyme activity relative to vehicle controls. Dose-response studies were conducted for those compounds exerting ≧50% inhibition of activity at 10 nM in primary screening. IC50, defined as the inhibitor concentration which caused a 50% decrease of the activity under assay conditions, was computed using GraphPad Prism software, version 5.0.
The DPP-IV inhibition data (expressed either as IC50 in nanomolar or percent inhibition at a particular compound concentration) is presented in Table 1.

[1] = compound 10 nM, relative to vehicle controls

T1 sequence (P27487 whole entry): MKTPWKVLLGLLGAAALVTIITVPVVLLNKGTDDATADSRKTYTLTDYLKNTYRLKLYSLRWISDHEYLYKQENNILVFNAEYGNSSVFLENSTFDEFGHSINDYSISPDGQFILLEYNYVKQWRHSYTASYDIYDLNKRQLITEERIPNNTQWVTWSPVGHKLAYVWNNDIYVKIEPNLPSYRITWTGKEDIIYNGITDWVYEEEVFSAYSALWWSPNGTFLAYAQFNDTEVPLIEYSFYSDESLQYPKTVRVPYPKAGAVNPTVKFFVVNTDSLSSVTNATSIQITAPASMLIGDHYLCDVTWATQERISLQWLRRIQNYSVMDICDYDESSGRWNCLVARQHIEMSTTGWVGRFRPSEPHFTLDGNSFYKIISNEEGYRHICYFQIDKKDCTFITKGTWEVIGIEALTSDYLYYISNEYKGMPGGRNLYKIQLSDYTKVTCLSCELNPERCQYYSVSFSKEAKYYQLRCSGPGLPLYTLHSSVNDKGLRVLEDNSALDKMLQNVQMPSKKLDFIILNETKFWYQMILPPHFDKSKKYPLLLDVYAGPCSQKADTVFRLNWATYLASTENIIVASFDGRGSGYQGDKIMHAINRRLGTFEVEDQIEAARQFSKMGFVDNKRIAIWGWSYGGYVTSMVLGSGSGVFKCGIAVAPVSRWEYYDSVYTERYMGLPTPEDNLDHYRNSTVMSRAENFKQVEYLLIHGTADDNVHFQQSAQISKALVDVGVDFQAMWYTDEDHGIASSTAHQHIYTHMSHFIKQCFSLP

## N#C[C@@H]1CCCN1C(=O)[C@@H](N)C1CC2CCC(C1)N2C(=O)C12CC3CC(CC(C3)C1)C2 (stereo partly drawn) [Compound 3, (2S)-1-{(2S)-2-Amino-2-[8-(adamantane-1-carbonyl)-8-aza-bicyclo[3.2.1]oct-3-yl]-exo-ethanoyl}-pyrrolidin-2-carbonitrile trifluoroacetic acid salt]
  IC50: 6.67 nM

## N#C[C@@H]1CCCN1C(=O)[C@@H](N)C1CC2CCC(C1)N2C(=O)c1ccncc1 (stereo partly drawn) [Compound 4, (2S)-1-{(2S)-2-Amino-2-[8-(pyridine-4-carbonyl)-8-aza-bicyclo[3.2.1]oct-3-yl]-exo-ethanoyl}-pyrrolidin-2-carbonitrile trifluoroacetic acid salt]
  IC50: 1.03 nM

## N#Cc1ccc(C(=O)N2C3CCC2CC([C@H](N)C(=O)N2CCC[C@H]2C#N)C3)cc1 (stereo partly drawn) [Compound 5, (2S)-1-{(2S)-2-Amino-2-[8-(4-cyano-benzoyl)-8-aza-bicyclo[3.2.1]oct-3-yl]-exo-ethanoyl}-pyrrolidin-2-carbonitrile trifluoroacetic acid salt]
  IC50: 1.52 nM

## N#C[C@@H]1CCCN1C(=O)[C@@H](N)C1CC2CCC(C1)N2C(=O)c1cc(F)ccc1F (stereo partly drawn) [Compound 6, (2S)-1-{(2S)-2-Amino-2-[8-(2,5-difluorobenzoyl)-8-aza-bicyclo[3.2.1]oct-3-yl]-exo-ethanoyl}-pyrrolidin-2-carbonitrile trifluoroacetic acid salt]
  IC50: 2.3 nM

## N#C[C@@H]1CCCN1C(=O)[C@@H](N)C1CC2CCC(C1)N2C(=O)c1ccnc(F)c1 (stereo partly drawn) [Compound 7, (2S)-1-{(2S)-2-Amino-2-[8-(2-fluoro-pyridine-4-carbonyl)-8-aza-bicyclo[3.2.1]oct-3-yl]-exo-ethanoyl}-pyrrolidin-2-carbonitrile trifluoroacetic acid salt]
  IC50: 1.9 nM

## N#C[C@@H]1CCCN1C(=O)[C@@H](N)C1CC2CCC(C1)N2 (stereo partly drawn) [Compound 8, (2S)-1-{(2S)-2-Amino-2-[8-aza-bicyclo[3.2.1]oct-3-yl]-exo-ethanoyl}-pyrrolidin-2-carbonitrile trifluoro acetic acid salt]
  IC50: 6.84 nM

## N#C[C@@H]1CCCN1C(=O)[C@@H](N)C1CC2CCC(C1)N2Cc1cc(F)c(F)cc1F (stereo partly drawn) [Compound 9, (2S)-1-{(2S)-2-Amino-2-[8-(2,4,5-trifluorobenzyl)-8-aza-bicyclo[3.2.1]oct-3-yl]-exo-ethanoyl}-pyrrolidin-2-carbonitrile trifluoroacetic acid salt]
  IC50: 3.13 nM

## N[C@H](C(=O)N1CCC[C@H]1C(=O)O)C1CC2CCC(C1)N2C(=O)c1ccc(C(F)(F)F)cc1 (stereo partly drawn) [Compound 11, (2S)-1-{(2S)-2-amino-2-[8-(4-trifluoromethyl-benzoyl)-8-aza-bicyclo[3.2.1]-oct-3-yl]-exo-ethanoyl}-pyrrolidin-2-carboxylic acid trifluoroacetic acid salt]
read-out: % inhibition at 1000 nM
  inhibition at 1 µM: 29%

## NC(=O)[C@@H]1CCCN1C(=O)[C@@H](N)C1CC2CCC(C1)N2C(=O)c1ccc(C(F)(F)F)cc1.O=C(O)C(F)(F)F (stereo partly drawn) [Compound 12, (2S)-1-{(2S)-2-amino-2-[8-(4-trifluoromethyl-benzoyl)-8-aza-bicyclo[3.2.1]-oct-3-yl]-exo-ethanoyl}-pyrrolidin-2-carboxamide trifluoroacetic acid salt]
Compound 1000 nM, relative to vehicle controls
  % inhibition at 1000 nM: 30% inhibition at 1000 nM

## N[C@H](C(=O)N1CCC[C@H]1CO)C1CC2CCC(C1)N2C(=O)c1ccc2c(c1)OCO2.O=C(O)C(F)(F)F (stereo partly drawn) [Compound 14, (2S)-{(2S)-1-[(2S)-2-Amino-2-(8-(benzo[1,3]dioxole-5-carbonyl)-8-aza-bicyclo[3.2.1]-oct-3-yl)-exo-acetyl]-pyrrolidin-2-yl}methanol trifluoroacetic acid salt]
[1]
  % inhibition at 10 nM: 12% inhibition at 10 nM

## N#C[C@@H]1C[C@H](F)CN1C(=O)[C@@H](N)C1CC2CCC(C1)N2C(=O)c1cc(F)c(F)cc1F (stereo partly drawn) [Compound 16, (2S,4S)-1-{(2S)-2-Amino-2-[8-(2,4,5-trifluorobenzoyl)-8-aza-bicyclo[3.2.1]oct-3-yl]-exo-ethanoyl}-4-fluoro-pyrrolidin-2-carbonitrile trifluoroacetic acid salt]
  IC50: 2.9 nM

## N#C[C@@H]1C[C@H](F)CN1C(=O)[C@@H](N)C1CC2CCC(C1)N2C(=O)c1cc(F)ccc1F (stereo partly drawn) [Compound 17, (2S,4S)-1-{(2S)-2-Amino-2-[8-(2,5-difluorobenzoyl)-8-aza-bicyclo[3.2.1]oct-3-yl]-exo-ethanoyl}-4-fluoro-pyrrolidin-2-carbonitrile trifluoroacetic acid salt]
  IC50: 2.4 nM

## N#C[C@H]1CC[C@@H](C(=O)OCc2ccccc2)N1C(=O)[C@@H](N)C1CC2CCC(C1)N2C(=O)c1ccc(C(F)(F)F)cc1 (stereo partly drawn) [Compound 18, Benzyl-(2S,5R)-1-{(2S)-2-amino-2-[8-(4-trifluoromethyl-benzoyl)-8-aza-bicyclo[3.2.1]-oct-3-yl]-exo-ethanoyl}-5-cyano pyrrolidin-2-carboxylate trifluoroacetic acid salt]
Compound 10 nM, relative to vehicle controls, read-out: % inhibition at 10 nM
  inhibition at 0.01 µM: 1.11%

## N#C[C@@H]1C[C@H](F)CN1C(=O)[C@@H](N)C1CC2CCC(C1)N2Cc1cc(F)c(F)cc1F (stereo partly drawn) [Compound 19, (2S,4S)-1-{(2S)-2-Amino-2-[8-(2,4,5-trifluorobenzyl)-8-aza-bicyclo[3.2.1]oct-3-yl]-exo-ethanoyl}-4-fluoro-pyrrolidin-2-carbonitrile trifluoroacetic acid salt]
  IC50: 6.25 nM

## N#C[C@H]1CSCN1C(=O)[C@@H](N)C1CC2CCC(C1)N2C(=O)c1ccc(C(F)(F)F)cc1 (stereo partly drawn) [Compound 20, (4S)-3-{(2S)-2-Amino-2-[8-(4-trifluoromethyl-benzoyl)-8-aza-bicyclo[3.2.1]oct-3-yl]-exo-ethanoyl}-thiazolidin-4-carbonitrile trifluoroacetetic acid salt]
  IC50: 2.8 nM

## N[C@H](C(=O)N1CCSC1)C1CC2CCC(C1)N2C(=O)c1ccc(C(F)(F)F)cc1 (stereo partly drawn) [Compound 21, 3-{(2S)-2-Amino-2-[8-(4-trifluoromethyl-benzoyl)-8-aza-bicyclo[3.2.1]-oct-3-yl]-exo-ethanoyl}-1,3-thiazolidin trifluoroacetic acid salt]
  IC50: 17.9 nM

## N#C[C@@H]1CCCN1C(=O)[C@@H](N)C1CC2CCC(C1)N2C(=O)Nc1ccc(C(F)(F)F)cc1 (stereo partly drawn) [Compound 22, (2S)-1-{(2S)-2-Amino-2-[8-(4-trifluoromethylphenylcarbamoyl)-8-aza-bicyclo[3.2.1]oct-3-yl]exo-ethanoyl}-pyrrolidin-2-carbonitrile trifluoroacetic acid salt]
  IC50: 2.83 nM

## N#C[C@@H]1C[C@@H]2C[C@@H]2N1C(=O)[C@@H](N)C1CC2CCC(C1)N2C(=O)c1cc(F)c(F)cc1F (stereo partly drawn) [Compound 23, (1S,3S,5S)-2-{(2S)-2-Amino-2-[8-(2,4,5-trifluorobenzoyl)-8-aza-bicyclo[3.2.1]oct-3-yl]-exo-ethanoyl}-2-azabicyclo[3.1.0]hexane-3-carbonitrile trifluoroacetic acid salt]
  IC50: 9.75 nM

## N#Cc1ccc(C(=O)N2C3CCC2CC([C@H](N)C(=O)N2[C@H](C#N)C[C@@H]4C[C@@H]42)C3)cc1 (stereo partly drawn) [Compound 24, (1S,3S,5S)-2-{(2S)-2-Amino-2-[8-(4-cyanobenzoyl)-8-aza-bicyclo[3.2.1]oct-3-yl]-exo-ethanoyl}-2-azabicyclo[3.1.0]hexane-3-carbonitrile trifluoroacetic acid salt]
  IC50: 3.52 nM

## N#C[C@@H]1C[C@@H]2C[C@@H]2N1C(=O)[C@@H](N)C1CC2CCC(C1)N2C(=O)c1ccc(C(F)(F)F)cc1 (stereo partly drawn) [Compound 26, (1S,3S,5S)-2-{(2S)-2-Amino-2-[8-(4-trifluoromethylbenzoyl)-8-aza-bicyclo[3.2.1]oct-3-yl]-exo-ethanoyl}-2-azabicyclo[3.1.0]hexane-3-carbonitrile trifluoroacetic acid salt]
  IC50: 8.9 nM

## N#C[C@@H]1C[C@@H]2C[C@@H]2N1C(=O)[C@@H](N)C1CC2CCC(C1)N2C(=O)c1cc(F)ccc1F (stereo partly drawn) [Compound 27, (1S,3S,5S)-2-{(2S)-2-Amino-2-[8-(2,5-difluorobenzoyl)-8-aza-bicyclo[3.2.1]oct-3-yl]-exo-ethanoyl}-2-azabicyclo[3.1.0]hexane-3-carbonitrile trifluoroacetic acid salt]
  IC50: 17.2 nM

## N#C[C@H]1C[C@H]2C[C@H]2N1C(=O)[C@@H](N)C1CC2CCC(C1)N2C(=O)c1ccnc(F)c1.O=C(O)C(F)(F)F (stereo partly drawn) [Compound 29, (1R,3R,5R)-2-{(2S)-2-Amino-2-[8-(2-fluoropyridine-4-carbonyl)-8-aza-bicyclo[3.2.1]oct-3-yl]-exo-ethanoyl}-2-azabicyclo[3.1.0]hexane-3-carbonitrile trifluoroacetic acid salt]
[1]
  % inhibition at 10 nM: 0% inhibition at 10 nM
